Measured values from paper PMC6054832, “Novel pharmacological maps of protein lysine methyltransferases: key for target deorphanization” (Journal of Cheminformatics, 2018).

Legend:
[1] = target: T1, NSD1 (Homo sapiens, UniProt Q96L73); test: biochemical; parameters: Eurofins radiometric methyltransferase inhibition assay with [3H]SAM and nucleosome, core histone or histone H3 substrate
Description: (§1) Inhibitory activity assays for prospective validation

[2] = target: T2, SETD2 (Homo sapiens, UniProt Q9BYW2); test: biochemical; parameters: Eurofins radiometric methyltransferase inhibition assay with [3H]SAM and nucleosome, core histone or histone H3 substrate
T2 sequence (Q9BYW2 whole entry): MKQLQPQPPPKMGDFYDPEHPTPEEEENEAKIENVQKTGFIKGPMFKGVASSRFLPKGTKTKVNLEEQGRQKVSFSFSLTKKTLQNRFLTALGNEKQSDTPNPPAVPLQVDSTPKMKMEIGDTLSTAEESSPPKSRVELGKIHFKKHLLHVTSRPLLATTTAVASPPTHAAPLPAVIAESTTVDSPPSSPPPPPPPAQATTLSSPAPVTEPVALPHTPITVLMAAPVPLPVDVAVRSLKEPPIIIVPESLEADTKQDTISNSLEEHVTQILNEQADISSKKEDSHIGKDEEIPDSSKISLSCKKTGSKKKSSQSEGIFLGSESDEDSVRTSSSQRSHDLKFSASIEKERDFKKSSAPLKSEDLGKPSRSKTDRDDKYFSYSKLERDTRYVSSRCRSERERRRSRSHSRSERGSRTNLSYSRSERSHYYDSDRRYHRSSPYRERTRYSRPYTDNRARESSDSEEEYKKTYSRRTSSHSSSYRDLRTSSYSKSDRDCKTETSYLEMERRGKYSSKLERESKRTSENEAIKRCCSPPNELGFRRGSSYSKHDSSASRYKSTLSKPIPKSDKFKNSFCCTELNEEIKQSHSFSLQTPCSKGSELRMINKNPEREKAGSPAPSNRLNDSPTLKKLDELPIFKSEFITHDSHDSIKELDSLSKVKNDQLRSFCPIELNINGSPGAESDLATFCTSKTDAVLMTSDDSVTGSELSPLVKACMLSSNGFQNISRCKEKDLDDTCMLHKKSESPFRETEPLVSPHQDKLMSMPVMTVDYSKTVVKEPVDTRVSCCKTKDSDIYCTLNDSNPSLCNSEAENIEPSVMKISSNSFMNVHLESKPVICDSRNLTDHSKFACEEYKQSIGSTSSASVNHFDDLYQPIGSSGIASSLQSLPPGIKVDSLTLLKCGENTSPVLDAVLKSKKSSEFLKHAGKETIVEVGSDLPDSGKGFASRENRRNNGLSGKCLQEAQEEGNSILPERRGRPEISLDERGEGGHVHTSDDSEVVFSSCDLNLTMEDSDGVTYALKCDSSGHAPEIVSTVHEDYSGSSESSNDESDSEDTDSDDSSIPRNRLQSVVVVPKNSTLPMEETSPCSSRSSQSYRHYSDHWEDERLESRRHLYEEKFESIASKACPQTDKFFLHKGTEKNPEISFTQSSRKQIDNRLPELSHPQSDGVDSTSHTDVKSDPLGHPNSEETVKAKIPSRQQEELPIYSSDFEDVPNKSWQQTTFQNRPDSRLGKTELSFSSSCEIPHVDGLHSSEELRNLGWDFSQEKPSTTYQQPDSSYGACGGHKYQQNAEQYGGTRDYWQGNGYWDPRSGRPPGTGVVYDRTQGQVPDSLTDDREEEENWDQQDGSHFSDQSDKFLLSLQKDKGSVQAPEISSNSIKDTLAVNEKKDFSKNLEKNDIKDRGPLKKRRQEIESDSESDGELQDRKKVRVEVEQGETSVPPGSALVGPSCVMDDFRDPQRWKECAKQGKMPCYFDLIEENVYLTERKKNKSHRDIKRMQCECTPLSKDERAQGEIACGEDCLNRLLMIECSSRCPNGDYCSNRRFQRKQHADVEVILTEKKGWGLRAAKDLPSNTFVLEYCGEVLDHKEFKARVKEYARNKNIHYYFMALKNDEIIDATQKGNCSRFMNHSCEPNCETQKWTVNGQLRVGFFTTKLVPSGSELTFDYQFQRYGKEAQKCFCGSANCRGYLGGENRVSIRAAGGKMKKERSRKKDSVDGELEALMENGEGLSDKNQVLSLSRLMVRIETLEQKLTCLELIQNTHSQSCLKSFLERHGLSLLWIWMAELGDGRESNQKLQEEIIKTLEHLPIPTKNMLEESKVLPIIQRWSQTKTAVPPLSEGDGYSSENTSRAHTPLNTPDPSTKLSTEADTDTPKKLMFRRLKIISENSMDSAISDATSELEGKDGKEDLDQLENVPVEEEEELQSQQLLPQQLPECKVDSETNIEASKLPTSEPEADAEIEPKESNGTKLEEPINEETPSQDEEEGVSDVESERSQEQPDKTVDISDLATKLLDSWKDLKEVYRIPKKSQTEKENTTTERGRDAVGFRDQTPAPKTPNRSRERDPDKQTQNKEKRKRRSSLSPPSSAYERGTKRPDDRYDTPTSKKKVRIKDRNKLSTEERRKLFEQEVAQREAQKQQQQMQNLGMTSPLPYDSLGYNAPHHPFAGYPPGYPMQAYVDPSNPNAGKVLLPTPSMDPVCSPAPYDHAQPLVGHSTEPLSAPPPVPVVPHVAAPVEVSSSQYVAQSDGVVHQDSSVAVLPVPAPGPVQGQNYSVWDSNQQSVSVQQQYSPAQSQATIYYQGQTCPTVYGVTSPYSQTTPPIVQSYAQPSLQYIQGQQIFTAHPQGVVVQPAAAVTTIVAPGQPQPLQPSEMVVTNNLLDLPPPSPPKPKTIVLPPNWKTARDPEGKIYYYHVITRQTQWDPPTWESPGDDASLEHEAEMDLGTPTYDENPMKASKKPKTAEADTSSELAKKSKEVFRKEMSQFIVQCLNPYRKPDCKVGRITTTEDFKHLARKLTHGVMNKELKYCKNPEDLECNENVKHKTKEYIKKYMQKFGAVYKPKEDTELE
Description: as §1

[3] = target: T3, NSD2 (Homo sapiens, UniProt O96028); test: biochemical; parameters: Eurofins radiometric methyltransferase inhibition assay with [3H]SAM and nucleosome, core histone or histone H3 substrate
T3 sequence (O96028 1-1365): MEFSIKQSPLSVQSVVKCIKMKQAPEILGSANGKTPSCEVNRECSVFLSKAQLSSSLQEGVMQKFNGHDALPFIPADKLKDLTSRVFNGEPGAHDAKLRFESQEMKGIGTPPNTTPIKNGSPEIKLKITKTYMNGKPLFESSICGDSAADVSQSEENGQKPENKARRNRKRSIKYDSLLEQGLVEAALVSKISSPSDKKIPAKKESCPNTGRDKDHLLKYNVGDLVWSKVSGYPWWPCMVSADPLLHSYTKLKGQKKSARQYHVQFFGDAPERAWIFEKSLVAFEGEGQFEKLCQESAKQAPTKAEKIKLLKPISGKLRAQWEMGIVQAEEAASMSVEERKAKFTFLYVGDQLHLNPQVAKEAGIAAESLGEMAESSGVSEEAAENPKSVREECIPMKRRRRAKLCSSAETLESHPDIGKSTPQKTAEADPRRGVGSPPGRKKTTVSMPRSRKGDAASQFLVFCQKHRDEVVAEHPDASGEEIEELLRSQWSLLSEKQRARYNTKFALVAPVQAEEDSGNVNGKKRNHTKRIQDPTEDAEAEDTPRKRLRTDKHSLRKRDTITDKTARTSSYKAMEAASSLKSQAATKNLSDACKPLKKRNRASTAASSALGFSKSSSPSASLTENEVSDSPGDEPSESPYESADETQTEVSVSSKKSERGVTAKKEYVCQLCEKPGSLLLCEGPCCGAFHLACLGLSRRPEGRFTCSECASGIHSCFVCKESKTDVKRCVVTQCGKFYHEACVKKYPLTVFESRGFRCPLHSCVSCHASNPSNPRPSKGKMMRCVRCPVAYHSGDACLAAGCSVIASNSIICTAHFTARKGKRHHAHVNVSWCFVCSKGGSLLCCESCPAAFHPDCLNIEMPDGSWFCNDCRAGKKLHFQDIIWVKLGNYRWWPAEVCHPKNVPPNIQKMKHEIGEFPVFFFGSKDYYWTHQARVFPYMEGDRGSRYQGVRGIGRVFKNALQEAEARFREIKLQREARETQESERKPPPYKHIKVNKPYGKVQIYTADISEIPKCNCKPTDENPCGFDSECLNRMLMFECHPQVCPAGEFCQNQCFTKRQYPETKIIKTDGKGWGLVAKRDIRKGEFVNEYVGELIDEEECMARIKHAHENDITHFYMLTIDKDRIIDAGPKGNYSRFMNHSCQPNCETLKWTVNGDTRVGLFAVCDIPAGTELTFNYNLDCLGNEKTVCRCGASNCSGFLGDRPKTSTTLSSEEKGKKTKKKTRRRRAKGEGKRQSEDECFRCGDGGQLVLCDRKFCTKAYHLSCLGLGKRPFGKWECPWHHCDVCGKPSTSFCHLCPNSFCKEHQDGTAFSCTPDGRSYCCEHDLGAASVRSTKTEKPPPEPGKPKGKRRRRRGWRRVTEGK
Description: as §1

[4] = target: T4, KMT5C (Homo sapiens, UniProt Q86Y97); test: biochemical; parameters: Eurofins radiometric methyltransferase inhibition assay with [3H]SAM and nucleosome, core histone or histone H3 substrate
T4 sequence (Q86Y97 whole entry): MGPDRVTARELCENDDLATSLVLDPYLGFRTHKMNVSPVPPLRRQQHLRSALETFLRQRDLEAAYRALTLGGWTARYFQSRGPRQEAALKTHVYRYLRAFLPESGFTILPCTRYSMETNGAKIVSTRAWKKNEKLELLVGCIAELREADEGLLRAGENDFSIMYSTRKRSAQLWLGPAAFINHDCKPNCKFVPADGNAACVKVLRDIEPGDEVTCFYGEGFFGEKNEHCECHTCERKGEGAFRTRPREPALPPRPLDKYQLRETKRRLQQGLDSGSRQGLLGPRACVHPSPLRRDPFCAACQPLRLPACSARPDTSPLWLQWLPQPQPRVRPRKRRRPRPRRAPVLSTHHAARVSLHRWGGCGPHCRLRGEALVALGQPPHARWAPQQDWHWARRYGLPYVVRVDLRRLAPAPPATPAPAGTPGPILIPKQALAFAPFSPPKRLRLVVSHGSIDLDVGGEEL
Description: as §1

[5] = target: KMT2A (Homo sapiens, UniProt Q03164); test: biochemical; parameters: Eurofins radiometric methyltransferase inhibition assay with [3H]SAM and nucleosome, core histone or histone H3 substrate
Description: as §1

[6] = target: T4, KMT5C; test: radioactive [3H]SAM methyltransferase assay with nucleosome substrate (Eurofins), […]; type: biochemical
[7] = target: T1, NSD1; test: as above; type: biochemical
[8] = target: T2, SETD2; test: as above; type: biochemical

**Q.** For `COc1cc2c(NC3CCN(C)CC3)cc(-c3ccc(C)o3)nc2cc1OCCCN1CCCC1` [CM-272], which inhibition at 10 µM [1] is on record?
**A.** The inhibition at 10 µM was 63.5%.

**Q.** What about the inhibition at 100 µM [1] of the same compound?
**A.** Its inhibition at 100 µM is 97.8%.

**Q.** What about the inhibition at 100 µM [2] of the same compound?
**A.** The inhibition at 100 µM was 45.9%.

**Q.** What about the inhibition at 10 µM [3] of the same compound?
**A.** The inhibition at 10 µM was -0.5%.

**Q.** What about the inhibition at 100 µM [3] of the same compound?
**A.** Its inhibition at 100 µM is 11.7%.

**Q.** What about the inhibition at 10 µM [4] of the same compound?
**A.** Its inhibition at 10 µM is 92%.

**Q.** And the inhibition at 100 µM [4]?
**A.** The inhibition at 100 µM was 91.8%.

**Q.** What about the inhibition at 10 µM [5] of the same compound?
**A.** Its inhibition at 10 µM is -1%.

**Q.** What about the inhibition at 100 µM [5] of the same compound?
**A.** The inhibition at 100 µM was 7.4%.

**Q.** And the “radioactive [3H]SAM methyltransferase assay with nucleosome substrate (Eurofins)” value [6]?
**A.** The value was “low micromolar range”.

**Q.** What about the inhibition at 10 µM [7] of the same compound?
**A.** The inhibition at 10 µM was > 50%.

**Q.** `COc1cc2c(NC3CC4(CCN(C)CC4)C3)cc(-c3ccc(C)o3)nc2cc1OCCCN1CCCC1` [CM-679] was tested. Which inhibition at 10 µM [1] did it give?
**A.** Its inhibition at 10 µM is 81.7%.

**Q.** What about the inhibition at 100 µM [1] of the same compound?
**A.** Its inhibition at 100 µM is 98%.

**Q.** And the inhibition at 10 µM [2]?
**A.** The inhibition at 10 µM was -52.4%.

**Q.** And the inhibition at 10 µM [3]?
**A.** The inhibition at 10 µM was 11.9%.

**Q.** What about the inhibition at 100 µM [3] of the same compound?
**A.** Its inhibition at 100 µM is 0.3%.

**Q.** And the inhibition at 10 µM [4]?
**A.** Its inhibition at 10 µM is 85.7%.

**Q.** What about the inhibition at 100 µM [4] of the same compound?
**A.** Its inhibition at 100 µM is 92.9%.

**Q.** What about the inhibition at 10 µM [5] of the same compound?
**A.** Its inhibition at 10 µM is 8.6%.

**Q.** What about the inhibition at 100 µM [5] of the same compound?
**A.** The inhibition at 100 µM was 48.8%.

**Q.** What about the “radioactive [3H]SAM methyltransferase assay with nucleosome substrate (Eurofins)” value [6] of the same compound?
**A.** The value was “low micromolar range”.

**Q.** And the inhibition at 10 µM [7]?
**A.** The inhibition at 10 µM was > 50%.

**Q.** And the inhibition at 100 µM [8]?
**A.** Its inhibition at 100 µM is 84%.

**Q.** Which results are given for `COc1cc2c(NC3CCN(C)CC3)cc(-c3ccc(C)o3)nc2cc1OC1CC2(C1)CN(C)C2` [CM-986]?
**A.** inhibition at 10 µM [1]: 55.9%; inhibition at 100 µM [1]: 98.8%; inhibition at 10 µM [2]: -69.8%; inhibition at 100 µM [2]: 42.1%; inhibition at 10 µM [3]: -7.2%; inhibition at 100 µM [3]: 2.7%; inhibition at 10 µM [4]: 79.1%; inhibition at 100 µM [4]: 87.7%; inhibition at 10 µM [5]: 2.9%; inhibition at 100 µM [5]: 30.5%; radioactive [3H]SAM methyltransferase assay with nucleosome substrate (Eurofins) [6]: low micromolar range; inhibition at 10 µM [7]: > 50%
